Measured values: patent publication US9656962B2, “Ring-contracted morphinans and the use thereof” (Purdue Pharma L.P., priority 2013, dated 2017)

Tests used:
Assay type in all cases: biochemical
κ-opioid receptor = κ-opioid receptor (Homo sapiens (Human), UniProt P41145); assay: κ-opioid receptor [35S]GTPγS functional assay, U-2 OS cells (Table 5); details: for Emax: relative to U69,593; for EC50: κ GTP
Description: κ-Opioid Receptor Functional Assay Procedures: Functional [^35S]GTPγS binding assays were conducted as follows. κ opioid receptor membrane solution was prepared by sequentially adding final concentrations of 0.026 μg/μl κ membrane protein (in-house), 10 μg/mL saponin, 3 μM GDP and 0.20 nM [^35S]GTPγS to binding buffer (100 mM NaCl, 10 mM MgCl2, 20 mM HEPES, pH 7.4) on ice. The prepared membrane solution (190 μl/well) was transferred to 96-shallow well polypropylene plates containing 10 μl of 20× concentrated stock solutions of agonist prepared in DMSO. Plates were incubated for 30 min at a temperature of about 25° C. with shaking. Reactions were terminated by rapid filtration onto 96-well Unifilter GF/B filter plates (Perkin Elmer, Shelton, Conn.) using a 96-well tissue harvester (Packard) and followed by three filtration washes with 200 μl ice-cold binding buffer (10 mM NaH2PO4, 10 mM Na2HPO4, pH 7.4). Filter plates were subsequently dried at 50° C. for 2-3 hours. Fifty μl/well scintillation cocktail (Perkin Elmer, Shelton, Conn.) was added and plates were counted in a Packard Top-Count for 1 min/well.
κ GTP Emax (%) is the maximal effect elicited by a compound relative to the effect elicited by U69,593.
The following TABLE 5 provides results on the activity response of certain Compounds of the Invention at the μ- and κ-opioid receptors determined as described above using U-2 OS cells.

μ-opioid receptor [1] = target: T1, μ-opioid receptor (Homo sapiens (Human), UniProt P35372); assay: μ-opioid receptor [35S]GTPγS functional assay, U-2 OS cells (Table 5); details: for Emax: relative to DAMGO; for EC50: μ GTP
Description: (§1) μ-Opioid Receptor Functional Assay Procedures: [^35S]GTPγS functional assays were conducted using freshly thawed μ-receptor membranes prepared in-house from a cell line expressing recombinant μ opioid receptor in a HEK-293, CHO or U-2 OS cell background, or purchased from a commercial source (Perkin Elmer, Shelton, Conn.; or DiscovRx, Fremont, Calif.). Assay reactions were prepared by sequentially adding the following reagents to binding buffer (100 mM NaCl, 10 mM MgCl2, 20 mM HEPES, pH 7.4) on ice (final concentrations indicated): membrane protein (0.026 mg/mL), saponin ([…]), GDP ([…]) and [^35S]GTPγS (0.20 nM; Perkin Elmer, Shelton, Conn.). The prepared membrane solution (190 μl/well) was transferred to 96-shallow well polypropylene plates containing 10 μl of 20× concentrated stock solutions of the agonist [D-Ala^2, N-methyl-Phe^4 Gly-ol^5]-enkephalin (DAMGO) prepared in dimethyl sulfoxide (DMSO). Plates were incubated for 30 min at about 25° C. with shaking Reactions were terminated by rapid filtration onto 96-well Unifilter GF/B filter plates (Perkin Elmer, Shelton, Conn.) using a 96-well tissue harvester (Perkin Elmer, Shelton, Conn.) followed by three filtration washes with 200 μl of ice-cold wash buffer (10 mM NaH2PO4, 10 mM Na2HPO4, pH 7.4). Filter plates were subsequently dried at 50° C. for 2-3 hours. BetaScint scintillation cocktail (Perkin Elmer, Shelton, Conn.) was added (50 μl/well) and plates were counted using a Packard Top-Count for 1 min/well. Data were analyzed using the sigmoidal dose-response curve fitting functions in GraphPad PRISM v. 3.0, or an in-house function for non-linear, sigmoidal dose-response curve-fitting. [^35S]GTPγS functional assays can also be conducted using freshly thawed μ-receptor membranes prepared from a cell line expressing recombinant μ opioid receptor in a CHO-K1 cell background.
(§2) μ GTP Emax (%) is the maximal effect elicited by a compound relative to the effect elicited by DAMGO, a standard μ agonist.

μ-opioid receptor [2] = target: T1, μ-opioid receptor; assay: μ-opioid receptor [35S]GTPγS functional assay, HEK-293 or CHO cells (Table 4); details: for Emax: relative to DAMGO; for EC50: μ GTP
Description: as §1, §2
In TABLE 4, activity response of certain Compounds of the Invention to the μ- and κ-opioid receptors was determined as described above for functional assays using HEK-293 or CHO cells.

Row | SMILES | Emax (κ-opioid receptor) [%] | EC50 (κ-opioid receptor) [nM] | Emax (μ-opioid receptor [1]) [%] | EC50 (μ-opioid receptor [1]) [nM] | Emax (μ-opioid receptor [2]) [%] | EC50 (μ-opioid receptor [2]) [µM] | EC50 (μ-opioid receptor [2]; bound given in μM) [µM]
1 | O=C(NCCc1ccccc1)[C@H]1C[C@]23CCN(CC4CC4)[C@H](Cc4ccc(O)cc42)[C@]3(O)C1 [Compound 51, (2S,3aS,4R,9bS)-12-(cyclopropylmethyl)-3a,8-dihydroxy-N-phenethyl-1,2,3,3a,4,5-hexahydro-4,9b-(epiminoethano)cyclo-penta[a]naphthalene-2-carboxamide] | 102 ± 2.31 | 0.047 | 87.7 ± 1.2 | 0.13 ± 0.015 | 43 ± 3.06 | 0.00049 ± 4e-05 | 
2 | O=C(NCc1ccc(O)cc1)[C@H]1C[C@]23CCN(CC4CC4)[C@H](Cc4ccc(O)cc42)[C@]3(O)C1 [Compound 40, (2S,3aS,4R,9bS)-12-(cyclopropylmethyl)-3a,8-dihydroxy-N-(4-hydroxybenzyl)-1,2,3,3a,4,5-hexahydro-4,9b-(epiminoethano)cyclopenta[a]naphthalene-2-carboxamide] | 97.7 ± 1.86 | 0.73 ± 0.07 | 29.3 ± 1.33 | 1.45 ± 0.068 | 1 |  | > 20
3 | O=C(NCc1cc(F)cc(F)c1)[C@@H]1C[C@]23CCN(CC4CC4)[C@H](Cc4ccc(O)cc42)[C@]3(O)C1 [Compound 49, (2R,3aS,4R,9bS)-12-(cyclopropylmethyl)-N-(3,5-difluorobenzyl)-3a,8-dihydroxy-1,2,3,3a,4,5-hexahydro-4,9b-(epimino-ethano)cyclopenta[a]naphthalene-2-carboxamide] | 108 ± 4.7 | 0.82 ± 0.099 | 42.3 ± 1.45 | 3.73 ± 0.23 | 10.5 ± 0.29 | 0.00617 ± 0.00198 | 
4 | CN1CC[C@]23C[C@H](C(N)=O)C[C@@]2(O)[C@H]1Cc1ccc(O)cc13 [Compound 78, (2S,3aS,4R,9bS)-3a,8-dihydroxy-12-methyl-1,2,3,3a,4,5-hexahydro-4,9b-(epiminoethano)cyclopenta-[a]naphthalene-2-carboxamide] | 89.7 ± 4.84 | 973 ± 136 | 94.7 ± 2.4 | 89.3 ± 14.6 | 27.4 ± 1.03 | 0.308 ± 0.093 | 
5 | COc1ccc2c(c1)C13CCN(CC4CC4)[C@H](C2)[C@]1(O)C[C@@H](N)C3 (stereo in doubt) [Compound 28, (2S,3aS,4R,9bS)-2-amino-12-(cyclopropylmethyl)-8-methoxy-1,2,3,3a,4,5-hexahydro-4,9b-(epiminoethano)cyclopenta[a]naphthalene-3a-ol] | 106.7 ± 0.88 | 179 ± 16.4 | 35.7 ± 5.49 | 326 ± 77.9 | 7.5 |  | > 20
6 | COc1ccc2c(c1)[C@]13CCN(CC4CC4)[C@H](C2)[C@]1(O)C[C@@H](C(=O)O)C3 [Compound 15, (2S,3aS,4R,9bS)-12-(cyclopropylmethyl)-3a-hydroxy-8-methoxy-1,2,3,3a,4,5-hexahydro-4,9b-(epiminoethano)-cyclopenta[a]naphthalene-2-carboxylic acid] | 79.7 ± 5.81 | 2900 ± 82.3 | 31.6 ± 3.21 | 343 ± 110 | 7 |  | > 20
7 | O=C(NCc1ccc(Cl)cc1Cl)[C@H]1C[C@]23CCN(CC4CC4)[C@H](Cc4ccc(O)cc42)[C@]3(O)C1 [Compound 45, (2S,3aS,4R,9bS)-12-(cyclopropylmethyl)-N-(2,4-dichlorobenzyl)-3a,8-dihydroxy-1,2,3,3a,4,5-hexahydro-4,9b-(epimino-ethano)cyclopenta[a]naphthalene-2-carboxamide] | 100 ± 4.62 | 0.018 | 87 ± 0.58 | 0.14 ± 0.018 | 43.3 ± 4.84 | 0.00038 ± 4.4e-05 | 
